The subject of data set [1] is differentiated adipocytes. Put plainly: aP2 secretion into conditioned medium of differentiated adipocytes (immunoblot). Format: cell-based. The conditions noted are these: for aP2 release from adipocytes treated with inhibitors of classical secretory pathways: conditioned medium blotted with anti-aP2; for lipolysis-induced aP2 secretion from adipocytes: co-treatment of adipocytes in which lipolysis was induced (IBMX/dbcAMP). The text has this:
HEK 293 cells were maintained in DMEM with 10% fetal bovine serum. FABP-deficient cell lines were established as previously described. Cao, H. et al. Identification of a lipokine, a lipid hormone linking adipose tissue to systemic metabolism. Cell 134, 933-944 (2008). Makowski, L. et al. Lack of macrophage fatty-acid-binding protein aP2 protects mice deficient in apolipoprotein E against atherosclerosis. Nat Med 7, 699-705 (2001). Pre-adipocytes were maintained in DMEM with 10% bovine calf serum and differentiated into adipocytes in DMEM with 10% cosmic calf serum (CCS) using a standard differentiation protocol. To induce lipolysis, differentiated adipocytes were treated with forskolin at 20 nM, or IBMX 1 mM/dibutyryl cAMP 1 mM for one hour. For lipid treatments, 0.25 mM palmitate or stearate was dissolved in DMEM with 10% CCS and added to adipocytes cultured in 12-well plates. At the end of one hour, the medium was replaced with the same lipid-containing medium, and conditioned medium was collected an additional hour later. To collect fat explants, epididymal adipose tissue depots were dissected from mice and rinsed twice in PBS. Adipose tissue samples were then transferred into DMEM with 10% CCS and minced into an average size of 1 to 2 mm. The tissue explants were washed extensively with DMEM and cultured in DMEM containing 10% CCS. Lipolysis was induced in the same manner as adipocytes.
(§1) Tissue protein lysate and conditioned medium from adipocytes were separated on SDS-PAGE gels and stained with Coomassie (Biorad Laboratory), or were detected with immunoblotting using the following antibodies: adiponectin from Santa Cruz Biotechnology, MFG-E8 from Calbiochem, caveolin-1 from BD Bioscience, AKT from Cell Signaling Technology. Flag-tagged aP2 was immunoprecipated using 4 ml of conditioned medium from transfected HEK 293 cells after incubation with 30 μl Flag agarose beads (Sigma) overnight at 4° C. Proteins bound to agarose beads were eluted with SDS loading buffer and resolved with SDS-PAGE.

The test system of data set [2] is differentiated adipocytes. Put plainly: Adiponectin secretion into conditioned medium of differentiated adipocytes (immunoblot). It is filed as cell-based. The conditions noted are these: inhibitors of classical secretory pathways.
From the text: FIG. 7A is a photograph of an electrophonetic gel showing non-classical secretion of aP2. Conditioned medium from adipocytes treated with control, brefeldin A (Bref A) or monensin (Mon) were blotted using anti-aP2 or adiponectin antibodies. Whole cell lysate (WCL) was also blotted using anti-aP2 antibody.
as §1
In general terms: Immunoblotting shows a protein as a band on a membrane.

For the next data set, the system named is serum aP2. Put plainly: Serum aP2 in mice after isoproterenol-induced lipolysis. The conditions noted are these: isoproterenol 10 mg/kg, blood 15 min following injection, vs vehicle. Format: in vivo.
For the next data set, the system named is FABP-deficient mice. Put plainly: Hyperinsulinemic-euglycemic clamp in FABP-deficient mice infused with recombinant aP2. Format: in vivo. How it is done: The mice were fasted overnight before the experiments and were infused with Intralipid at 3 ml/kg/h (Abbott) and heparin (6 U/h) for 5 hours. […] Mice were catheterized as described above. Hyperinsulinemic-euglycemic clamps were performed by a modification of a reported procedure^15. After an overnight fast, HPLC purified [3H]-glucose (0.05 μCi/min; PerkinElmer Life and Analytical Sciences, Boston, Mass.) was infused during the 2-h basal period, and blood samples were collected at the end to estimate the rate of basal hepatic glucose production. After the basal period, a 120-min hyperinsulinemic-euglycemic clamp was conducted with a primed-continuous infusion of human insulin (Humulin R; Eli Lilly, Indianapolis, Ind.) at a rate of 12.5 mU/kg/min. Blood samples were collected at 20-min intervals for the immediate measurement of plasma glucose concentrations, and 25% glucose was infused at variable rates to maintain plasma glucose at basal concentrations. Insulin-stimulated whole-body glucose turnover was estimated with a continuous infusion of [3-^3H]-glucose throughout the clamps (0.1 μCi/min). All infusions were performed using flow-controlled microdialysis pumps (CMA/Microdialysis, North Chelmsford, Mass.). Blood samples were taken at 80, 85, 90, 100, 110, and 120 min after the start of clamps for the determination of plasma [^3H]-glucose, and ^3H2O concentrations. […]

Data set [3] deals with WT mice maintained on regular chow diet. Put plainly: Glucose tolerance test of regular diet mice injected with recombinant aP2. Format: in vivo. The following applies: lean WT mice, recombinant aP2 100 μg twice a day for two weeks, vs control Gus protein. The text has this: FIG. 6I is a line graph showing glucose tolerance test of mice on regular diet injected with control Gus protein or recombinant aP2 for two weeks. *, p<0.05. Mice with homozygous null mutations in aP2 and mall were backcrossed more than 12 generations into a C57BL/6J genetic background. Mice were maintained on regular chow diet (RD) or placed on high-fat diet (Research Diets, Inc) at 4 weeks of age for 20 weeks to induce dietary obesity. Leptin-deficient (ob/ob) mice were purchased from the Jackson laboratory. All mice were maintained on a 12-hour light and dark cycle. Glucose and insulin tolerance tests using standard methods. Recombinant aP2 or control Gus protein with 6×His tag was produced in E. coli and purified with B-PER 6×His Spin Purification Kit (Pierce Biotechnology, Inc). Proteins were further purified by removing endotoxin with a commercial system (Lonza Inc.). 100 μg of control or aP2 protein was injected into WT mice maintained on regular chow diet twice a day for two weeks. The rabbit polyclonal antibody against mouse aP2 was produced using recombinant, full-length aP2 protein and the antibody was purified from serum of the final bleed using the NAb™ Spin system (Pierce Biotechnology, Inc). Pre-immune serum was purified similarly and used as control. […]

Data set [4] in a line: Serum aP2 ELISA after recombinant aP2 injection or infusion. Format: in vivo, mice. The procedure: FIG. 11 is a bar graph showing serum aP2 in WT mice after recombinant aP2 injection. Serum samples of mice were collected at indicated time points after aP2 injection and aP2 levels were determined with an aP2 ELISA.
FIG. 13 is a line graph showing Serum aP2 in FABP-deficient (DKO) mice during aP2 infusion. Serum samples were collected from FABP-deficient mice during aP2 infusion at indicated time points. Serum aP2 levels were determined with an aP2 ELISA.
Blood was collected from mice by tail bleeding after 6 hours of food withdrawal and spun in a microcentrifuge at 13,000 rpm for 30 minutes. Serum aP2 was determined with an ELISA system (Biovendor Inc.). To monitor nutritional regulation of serum aP2, blood samples were collected from mice immediately prior to the start of dark cycle after which animals were placed in cages without food. After 24 hours of fasting, a second set of blood samples were collected and food was provided. Final blood sampling was performed 4 hours after re-feeding. To determine aP2 levels during lipolysis, blood was collected from 12 mice at baseline levels. After this, 6 mice were injected with isoproterenol (10 mg/kg body weight) and the other 6 received vehicle control. Blood samples were collected 15 min following injection for aP2 measurement. […]
Background: ELISA stands for enzyme-linked immunosorbent assay.

The subject of the next data set is PEPCK and G6P. Put plainly: Liver gluconeogenic gene expression by quantitative real-time PCR. The conditions noted are these: WT mice infused with recombinant aP2 vs control protein. It is filed as in vivo. The procedure:
FIG. 6K is a bar graph showing gene expression in livers of WT mice infused with control protein or recombinant aP2 (top panel) or mice on HFD injected with control or aP2 antibody (bottom panel). PEPCK and G6P in liver tissues were analyzed with quantitative real-time PCR. *, p<0.05.
Total RNA was isolated from liver tissues using Trizol reagent (Invitrogen). Reverse transcription was carried out with a superscript first-strand cDNA synthesis system (Applied Biosystems Inc.) using 1 μg of RNA. Quantitative, real-time RT-PCR was performed on a PCR thermal cycler (Applied Biosystems Inc.). The PCR program was: 2 min 30 s at 95° C. for enzyme activation, 40 cycles of 15 s at 95° C., 30 s at 58° C., and 1 min at 72° C. for extension. Melting curve analysis was performed to confirm the real-time PCR products. All quantitations were normalized to the 1 8S rRNA. Primer sequences used were the following: PEPCK, forward: […](SEQ ID NO: 5), reverse: CAGCAACTGCCCGTACTCC (SEQ ID NO: 6); G6P, forward: […] (SEQ ID NO:7), reverse: […] (SEQ ID NO: 8).
Background: In qPCR the cycle at which signal appears reflects the starting amount.

“Also recorded” adds a separate entry of the source.

The text below walks through data of patent US10882901B2, “Methods of treating diabetes by an adipocyte protein 2 specific antibody” (President and Fellows of Harvard College, priority 2009, dated 2021).

`C[C@H]1CCC/C=C/[C@@H]2C[C@H](O)C[C@H]2[C@H](O)/C=C/C(=O)O1` [brefeldin A]: the “aP2 release from adipocytes treated with inhibitors of classical secretory pathways” value in data set [1] is “neither had any inhibitory effect”. Besides, the “adiponectin secretion from adipocytes” value in data set [2] is on record as “efficiently blocked adiponectin secretion”.

For `CC(C)NCC(O)c1ccc(O)c(O)c1` (centres unmarked) [isoproterenol], the “serum aP2 levels” value in the data set on serum aP2 is “rapid increase in serum aP2 levels”.

Take `CC[C@@]1([C@@H]2O[C@@H]([C@H]3O[C@@](O)(CO)[C@H](C)C[C@@H]3C)C[C@@H]2C)CC[C@H]([C@]2(C)CC[C@]3(C[C@H](O)[C@@H](C)[C@@H]([C@@H](C)[C@@H](OC)[C@H](C)C(=O)O)O3)O2)O1` [monensin]: the “aP2 release from adipocytes treated with inhibitors of classical secretory pathways” value in data set [1] was “neither had any inhibitory effect”. In addition, the “adiponectin secretion from adipocytes” value in data set [2] is recorded as “efficiently blocked adiponectin secretion”.

Regarding diethylumbelliferyl phosphate [DEUP], the “lipolysis-induced aP2 secretion from adipocytes” value in data set [1] is reported as “completely blocked lipolysis-induced aP2 secretion”.

For insulin, the “lipolysis-induced aP2 secretion from adipocytes” value in data set [1] was “aP2 secretion was suppressed”.

B1: recombinant aP2: Recombinant aP2 with 6×His tag produced in E. coli, purified, endotoxin removed (protein)
chain: CDAFVGTWKLVSSENFDDYMKEVGVGFATRKVAGMAKPNMIISVNGDLVTIRSESTFKNTEISFKLGVEFDEITADDRKVKSIITLDGGALVQVQKWDGKSTTIKRKRDGDKLVVECVMKGVTSTRVYERA
For B1, in the data set with FABP-deficient mice (FABP-deficient mice infused with recombinant aP2), the glucose metabolism rates result is “absence of alterations in glucose metabolism rates”. Also, in the data set with FABP-deficient mice (FABP-deficient mice infused with recombinant aP2 for 4 hours, vs control protein), the “basal hepatic glucose production (bHGP)” value is given as “significantly increased basal hepatic glucose production”. Also, the “glucose tolerance in glucose tolerance test” value in data set [3] is reported as “mild glucose intolerance; also recorded: developed glucose intolerance”. Further, in data set [4] (FABP-deficient mice, infusion 8 μg/kg/min), the “serum aP2 levels during aP2 infusion” value is reported as “rapid increase in serum aP2 levels”. Further, in data set [4] (WT mice on regular chow diet, injection), the “serum aP2 levels after a single dose of recombinant aP2” value is on record as “increased levels of serum aP2 that lasted for several hours”. Moreover, in the data set on PEPCK and G6P, the “G6P gene expression in liver” value is “significantly upregulated” and the “PEPCK gene expression in liver” value is listed as “significantly upregulated”.
